Assay results reported in paper PMC10825133, “Repurposing proteasome inhibitors for improved treatment of triple-negative breast cancer” (Cell Death Discovery, 2024).
Like-named read-outs stand apart in the source and are kept apart here.

Legend:
[1] = tested on: eight TNBC cell lines (BT-549, CAL-148, HCC1806, HCC38, HCC70, MDA-MB-436, MDA-MB-453, MDA-MB-468); assay: Monotherapy drug screen, mean across the TNBC cell lines; conditions: TNBC cell lines; by GRmax
Protocol: Eighteen pharmaceutical compounds were purchased from Selleckchem (Supplementary Table 2). Stock solutions were prepared using dimethyl sulfoxide (DMSO; Merck), physiological saline (sodium chloride 0.9%) or Milli-Q water, and stored at −80 °C. […] Matched concentration solvent vehicle controls were used for each drug concentration. The drug screens were performed in triplicate and repeated three (monotherapy) or two (combination therapy) times (Fig. 7).
The optimal seeding density per 96-well was determined for each cell line as previously described. The cells were seeded at a density of 4.0 × 10^3 to 7.5 × 10^3 (cell type dependent) in 96-well clear, flat-bottom microplates (Corning Life Sciences, Sigma-Aldrich) in 100 µl complete culture medium (Supplementary Table 1) and cultured for 24 h. Cell viability was determined using the resazurin assay in untreated cells at the time of plating (t = 0) and treated cells after 24 h drug treatment (Fig. 7). Percentage cell viability was calculated as 100% × (absorbance of treated cells – absorbance of background controls) / (absorbance of matched solvent vehicle controls – absorbance of background controls). The area under the curve (AUC), half-maximal inhibitory concentration (IC50), drug potency (GR50), and drug efficacy (GRmax) were determined for each compound using the GRmetrics (version 1.20.0) package in R. The monotherapy data were evaluated with the IDACombo (version 1.0.2) package in R to predict potential drug combinations (Table 1). SynergyFinder (version 3.2.10) package in R was used to identify synergistic drug combinations.
Eighteen pharmaceutical compounds were purchased from Selleckchem. […] The solubility of the compound was enhanced by pre-heating the solvent (lukewarm), if necessary. […] The stock solutions were stored at -80°C. […] Matched concentration solvent vehicle controls were used for each drug concentration. The drug screens were performed in triplicate and repeated three times for the monotherapies and twice for the combination treatments. The drug(s) and corresponding controls were plated in 96-well PCR plates (VWR) and stored at -20°C (Fig. 6). The drug plates were thawed, centrifuged (3000 rpm for 30s), and acclimatized to RT before the drugs were added to the cells. New drug plates were prepared for each drug screen.
The cells were seeded at a density of 4.0x10^3 to 7.5x10^3 (cell type-dependent) in 96-well clear, flat-bottom microplates (Corning Life Sciences, Sigma-Aldrich) in 100 µl culture medium supplemented with 10% FBS and cultured for 24h. Cell viability was determined using the resazurin assay after 24h drug treatment (Fig. 6). Percentage cell viability was calculated as 100% × (absorbance of treated cells – absorbance of background controls) / (absorbance of matched solvent vehicle controls – absorbance of background controls). Normalized growth rate inhibition (GR) was assessed using the absorbance of untreated cells after the time of plating (t = 0). […] For combination treatment, the monotherapy data were evaluated with the IDACombo (version 1.0.2)[20] package in R to predict potential drug combinations (Table 1). SynergyFinder (version 3.2.10)[21] package in R was used to identify synergistic drug combinations.

MCF-7 cells = assay: Resazurin-based cell viability assay, monotherapy drug screen; set-up: species or system human; AUC: scale not given here; conditions: MCF-7
Protocol: (§1) Eighteen pharmaceutical compounds were purchased from Selleckchem. […] The stock solutions were stored at -80°C. […] New drug plates were prepared for each drug screen.
(§2) To determine the optimal seeding density and ensure that the cells were in the exponential phase during the duration of the experiment (approx. 52h), each cell line (BT-549, CAL-148, HCC1806, HCC38, HCC70, MCF-10A, MCF-7, MDA-MB-436, MDA-MB-453, and MDA-MB-468) was seeded at different concentrations (1000 to 16000 cells) per 96-well, as previously described. Cell viability was measured daily (day 0 [plating day] to day 4) using 0.2 mg/ml resazurin solution prepared from resazurin sodium salt (Fisher Scientific) dissolved in sterile 1xPBS (ThermoFisher Scientific). Before use, the resazurin solution was brought to RT before 10 µl (10% of cell medium volume) was added to each 96-well and incubated for 4h at 37°C. The absorbance was measured with a 560 nm excitation filter and a 615 nm emission filter in a Wallac 1420 VICTOR2™ microplate reader (Perkin Elmer). The slope of the curve was used to determine the optimal seeding density, i.e., the highest seeding density with linear growth between days 1 and 3.

MDA-MB-436 cells = assay: as above; set-up: species or system human; AUC: scale not given here; conditions: MDA-MB-436
Protocol: as §1, §2

MDA-MB-468 cells = assay: as above; set-up: species or system human; AUC: scale not given here; conditions: MDA-MB-468
Protocol: as §1, §2

HCC38 cells = assay: as above; set-up: species or system human; AUC: scale not given here; conditions: HCC38
Protocol: as §1, §2

HCC70 cells = assay: as above; set-up: species or system human; AUC: scale not given here; conditions: HCC70
Protocol: as §1, §2

MDA-MB-453 cells = assay: as above; set-up: species or system human; AUC: scale not given here; conditions: MDA-MB-453
Protocol: as §1, §2

BT-549 cells = assay: as above; set-up: species or system human; AUC: scale not given here; conditions: BT-549
Protocol: as §1, §2

HCC1806 cells = assay: as above; set-up: species or system human; AUC: scale not given here; conditions: HCC1806
Protocol: as §1, §2

MCF-10A cells = assay: as above; set-up: species or system human; AUC: scale not given here
Protocol: as §1, §2

[2] = area under the dose response curve, 24 h
[3] = drug efficacy at highest tested dose (<0 cytotoxic, 0 cytostatic, >0 partial growth inhibition)
[4] = growth rate inhibition concentration at GR(c) = 0.5, 24 h, read-out: GR50 (the source's name)
[5] = 24 h drug treatment, read-out: IC50

## N.N.O=C([O-])C1(C(=O)[O-])CCC1.[Pt+2] [Carboplatin]
[1]
  cytotoxic effect at the highest dose: lowest cytotoxic effects
MCF-7 cells; [2]
  AUC: 0.91
MCF-7 cells; [3]
  GRmax: −0.15
MCF-7 cells; [4]
  IC50: 360 nM
MDA-MB-436 cells; [2]
  AUC: 0.91
MDA-MB-436 cells; [3]
  GRmax: 0.41
MDA-MB-436 cells; [4]
  IC50: 870 nM
MDA-MB-468 cells; [5]
  IC50: 470 nM
MDA-MB-468 cells; [2]
  AUC: 0.81
MDA-MB-468 cells; [3]
  GRmax: 0.02
MDA-MB-468 cells; [4]
  IC50: 240 nM
HCC38 cells; [5]
  IC50: 890 nM
HCC38 cells; [2]
  AUC: 0.88
HCC38 cells; [3]
  GRmax: 0.03
HCC38 cells; [4]
  IC50: 430 nM
HCC70 cells; [5]
  IC50: 450 nM
HCC70 cells; [2]
  AUC: 0.83
HCC70 cells; [3]
  GRmax: −0.42
HCC70 cells; [4]
  IC50: 270 nM
MDA-MB-453 cells; [2]
  AUC: 0.98
MDA-MB-453 cells; [3]
  GRmax: 0.79
BT-549 cells; [2]
  AUC: 0.85
BT-549 cells; [3]
  GRmax: 0.39
BT-549 cells; [4]
  IC50: 670 nM
HCC1806 cells; [2]
  AUC: 0.90
HCC1806 cells; [3]
  GRmax: 0.53
MCF-10A cells; [5]
  IC50: 730 nM
MCF-10A cells; [2]
  AUC: 0.90
MCF-10A cells; [3]
  GRmax: 0.19
MCF-10A cells; [4]
  IC50: 760 nM
